Columns and labels:
σ1R oligomers = target: T1, σ1R oligomers (Mus musculus, UniProt O55242); test: In vitro made σ1R oligomers on agarose-σ1R; type: biochemical, murine; conditions: agarose-σ1R plus free σ1Rs (100 nM), Tris-HCl pH 7.4, 0.2% CHAPS, 2.5 mM CaCl2
T1 construct: The coding region of the full-length murine σ1R (AF004927); GST (N); made in house; host or cells: E. coli BL21 (KRX)
Method: In ex vivo fishing assays performed on mouse solubilized brain membranes enriched in synaptosomes (SBM), our bait, agarose-covalently attached σ1Rs (agarose-σ1R), captured diverse prey, such as trimeric G proteins, σ1Rs and σ2Rs (Figure 4C). Because σ1Rs form oligomers in vivo that can be altered by ligands, we added in vitro free σ1Rs to agarose-σ1Rs. After removing the unbound σ1Rs, the extent of the σ1R oligomerization that remained around the agarose-σ1R was determined by SDS-PAGE followed by Western blot analysis (Figure S3).
Figure S4. In vitro made σ1R oligomers. A) Effect of σ1R ligands on the formation of σ1R oligomers.
Agarose (Θ)-attached σ1Rs were incubated for 30 min in the presence of recombinant free σ1Rs (100 nM) in 300 μL of 50 mM Tris-HCl (pH 7.4), 0.2% CHAPS, and 2.5 mM CaCl2. After removing unbound σ1R proteins, the assays were performed in the absence (control) or presence of increasing concentrations of σ1R ligands. The agarose-bound σ1R protein complexes were obtained by centrifugation, washed three times, solubilized in 2x Laemmli buffer containing β-mercaptoethanol, resolved by SDS-PAGE, and analyzed by Western blotting (for more details see Methods). […] The G proteins that remained bound to Θ-σ1R oligomers were determined as in Figure 4C. The arrows indicate an estimated afﬁnity of the ligand for σ1Rs, as determined through in vitro assays. […]

σ1R oligomers-σ2R = target: T2, σ1R oligomers-σ2R (Mus musculus, UniProt O55242); test: Ex vivo fishing assay: σ1R and σ2R of mouse cerebral cortex bound to agarose-σ1R oligomers; type: biochemical; conditions: wild-type mouse cerebral cortex SBM; n = 3
T2 construct: The coding region of the full-length murine σ1R (AF004927); GST (N); made in house; host or cells: E. coli BL21 (KRX) for the σ1R bait; σ2R and further σ1R come from solubilised mouse cerebral cortex synaptosomes
T2 sequence (O55242 whole entry): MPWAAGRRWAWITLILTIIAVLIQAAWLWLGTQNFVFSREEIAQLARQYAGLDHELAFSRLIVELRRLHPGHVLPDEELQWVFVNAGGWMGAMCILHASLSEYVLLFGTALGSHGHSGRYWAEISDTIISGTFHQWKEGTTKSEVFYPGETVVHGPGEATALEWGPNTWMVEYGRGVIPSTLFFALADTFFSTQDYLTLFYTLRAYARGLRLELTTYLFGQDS
Method: (B) Θ-σ1R captured G proteins in CD1 wild-type and σ2R^−/− SBM. Ex vivo fishing assays were performed as described in Figure 4C. The data from σ2R^−/− solubilized cortical tissue were referred to the wild-type control (arbitrary value of 1). (C) The σ1R oligomers captured G proteins from σ2R^−/− mouse SBM. For each Gα subunit and the σ1R, the immunosignals in the absence of the acetylated peptide were the controls (C, value of 1). […] (A,B,D,E) Data are the mean ± SD, n = 3. Data were analyzed by pairwise Holm–Sidak multiple comparison tests following ANOVA: p < 0.05, 1-β > 0.80.
For fishing studies, solubilization of neural synaptosomes from cerebral cortices or PAG was carried out at 4 °C in RIPA buffer. The membranes were incubated at 4 °C for 16 h with agitation, and then centrifuged at 10,000× g for 5 min. The supernatant was cleared with 20 μL of Sepharose 4B (#17-0120-01, GE Healthcare) pre-equilibrated for 1 h at 4 °C, followed by centrifugation at 4300× g for 5 min. The σ1R was immobilized through covalent attachment to N-Hydroxysuccinimide (NHS)-activated Sepharose 4 fast flow (4FF, #17-0906-01; GE) according to the manufacturer’s instructions. […]

[1] = system: [^125I]-Tyr^27 β-End 1–31 binding site (probably the σ1R site); conditions: 5 pM [125I]-Tyr27 β-End 1–31; cited from earlier work
Excerpt: (§1) ^αN-acetyl β-End 1–31 prevented or alleviated a series of negative symptoms in animals, such as the brain injury caused by pMCAO, the convulsive syndrome promoted by icv-injection of NMDA, and mechanical allodynia caused by unilateral sciatic nerve CCI.

MORs = conditions: tritiated naloxone and morphine, mouse brain synaptosomes; cited from earlier work
Excerpt: as §1

[2] = system: CD1 mice (wild-type and σ1R−/−); conditions: single icv dose; cited from earlier work

T1 sequence (O55242 whole entry): as above

## KKGE [β-End 28–31, C-terminal tetrapeptide of β-End 1–31]
σ1R oligomers
  effect on in vitro made σ1R oligomers: released σ1Rs from these oligomers

## ^αN-acetyl β-End 1–31: β-End 1–31 acetylated at N terminal Y1, α position
σ1R oligomers
  effect on in vitro made σ1R oligomers: released σ1Rs from these oligomers
σ1R oligomers-σ2R
  effect on σ1R oligomerization and σ2R presence at the agarose-σ1R bait: reduces the extent of σ1R oligomerization, and increases the association of σ2Rs with the bait
[1]
  fraction of [^125I]-Tyr^27 β-End 1–31 specific binding abolished: 20–30%
MORs
  affinity to MORs: μM range
[2]
  duration of the effect of a single dose on analgesia: 24 h

Source: paper PMC9820303, “^αN-Acetyl β-Endorphin Is an Endogenous Ligand of σ1Rs That Regulates Mu-Opioid Receptor Signaling by Exchanging G Proteins for σ2Rs in σ1R Oligomers” (International Journal of Molecular Sciences, 2022)
